Broadly, the AC50 is the concentration at which the activity in the assay is half-maximal. Read a low AC50 as greater potency.

Molecules are shown by their SMILES. A value given as a limit tells only on which side of the number the result lay.

The target of assay [1] is T1, Prostaglandin G/H synthase 1 (Homo sapiens, UniProt P23219). It counts as functional.
In the next assay the target is T2, Progesterone receptor (Homo sapiens, UniProt P06401).
T2 sequence (P06401 whole entry): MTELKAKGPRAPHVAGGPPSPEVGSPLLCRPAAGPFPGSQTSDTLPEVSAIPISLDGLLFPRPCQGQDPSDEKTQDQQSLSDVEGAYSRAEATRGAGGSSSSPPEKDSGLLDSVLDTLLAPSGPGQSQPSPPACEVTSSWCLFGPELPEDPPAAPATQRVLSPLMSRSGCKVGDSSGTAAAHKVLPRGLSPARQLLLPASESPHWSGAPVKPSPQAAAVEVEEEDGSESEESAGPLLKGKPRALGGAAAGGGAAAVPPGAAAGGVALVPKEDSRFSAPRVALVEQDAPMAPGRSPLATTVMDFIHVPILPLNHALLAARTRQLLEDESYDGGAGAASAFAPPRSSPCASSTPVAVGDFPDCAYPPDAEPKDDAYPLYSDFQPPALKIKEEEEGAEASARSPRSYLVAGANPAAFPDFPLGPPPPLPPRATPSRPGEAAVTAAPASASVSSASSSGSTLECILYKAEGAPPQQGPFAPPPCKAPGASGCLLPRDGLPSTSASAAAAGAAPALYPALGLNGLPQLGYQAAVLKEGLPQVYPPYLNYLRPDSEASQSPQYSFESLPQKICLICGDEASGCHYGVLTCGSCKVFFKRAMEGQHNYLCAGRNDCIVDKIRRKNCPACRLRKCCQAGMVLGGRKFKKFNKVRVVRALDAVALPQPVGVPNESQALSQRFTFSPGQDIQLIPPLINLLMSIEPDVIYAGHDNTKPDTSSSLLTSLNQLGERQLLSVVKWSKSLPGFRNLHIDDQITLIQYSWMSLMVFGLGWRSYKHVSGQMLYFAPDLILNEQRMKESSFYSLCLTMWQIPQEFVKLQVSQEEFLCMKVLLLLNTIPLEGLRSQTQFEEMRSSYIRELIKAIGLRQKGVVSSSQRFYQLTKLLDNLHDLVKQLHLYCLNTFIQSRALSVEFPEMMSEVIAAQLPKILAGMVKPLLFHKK

For assay [2], the target named is cGMP-inhibited 3',5'-cyclic phosphodiesterase 3A (Homo sapiens, UniProt Q14432). Type of assay: functional.
Assay [3] has as its target T3, Thromboxane A2 receptor (Homo sapiens, UniProt P21731).
T3 sequence (P21731 whole entry): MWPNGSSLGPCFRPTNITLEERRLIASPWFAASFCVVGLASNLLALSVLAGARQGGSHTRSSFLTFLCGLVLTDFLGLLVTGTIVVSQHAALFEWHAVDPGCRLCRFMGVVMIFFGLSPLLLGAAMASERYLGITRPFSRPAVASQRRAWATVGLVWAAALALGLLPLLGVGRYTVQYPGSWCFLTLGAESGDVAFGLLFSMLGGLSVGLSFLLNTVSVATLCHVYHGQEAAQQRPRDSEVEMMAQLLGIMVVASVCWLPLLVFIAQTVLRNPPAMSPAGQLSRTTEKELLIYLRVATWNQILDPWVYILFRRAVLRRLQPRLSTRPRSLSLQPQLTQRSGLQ
It counts as functional, cell-based.

Assay [4] has as its target T3, Thromboxane A2 receptor. It counts as functional, cell-based. This is another data set of the same source.
The target in assay [5] is T4, 5-hydroxytryptamine receptor 1A (Homo sapiens, UniProt P08908).
T4 sequence (P08908 whole entry): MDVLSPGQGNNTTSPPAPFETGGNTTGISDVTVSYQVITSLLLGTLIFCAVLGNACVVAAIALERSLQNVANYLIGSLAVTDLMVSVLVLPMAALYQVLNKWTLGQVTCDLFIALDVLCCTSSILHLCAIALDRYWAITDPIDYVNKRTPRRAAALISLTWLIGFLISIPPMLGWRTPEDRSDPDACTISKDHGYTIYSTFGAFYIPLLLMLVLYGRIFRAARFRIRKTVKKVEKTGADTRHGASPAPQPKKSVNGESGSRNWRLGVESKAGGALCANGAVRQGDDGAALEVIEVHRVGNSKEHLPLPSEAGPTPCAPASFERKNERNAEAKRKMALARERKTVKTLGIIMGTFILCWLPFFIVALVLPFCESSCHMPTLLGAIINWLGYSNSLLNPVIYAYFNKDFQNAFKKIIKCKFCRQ

The target in a further assay is D(1A) dopamine receptor (Homo sapiens, UniProt P21728).
The target of assay [6] is T5, Amine oxidase [flavin-containing] A (Homo sapiens, UniProt P21397).
T5 sequence (P21397 whole entry): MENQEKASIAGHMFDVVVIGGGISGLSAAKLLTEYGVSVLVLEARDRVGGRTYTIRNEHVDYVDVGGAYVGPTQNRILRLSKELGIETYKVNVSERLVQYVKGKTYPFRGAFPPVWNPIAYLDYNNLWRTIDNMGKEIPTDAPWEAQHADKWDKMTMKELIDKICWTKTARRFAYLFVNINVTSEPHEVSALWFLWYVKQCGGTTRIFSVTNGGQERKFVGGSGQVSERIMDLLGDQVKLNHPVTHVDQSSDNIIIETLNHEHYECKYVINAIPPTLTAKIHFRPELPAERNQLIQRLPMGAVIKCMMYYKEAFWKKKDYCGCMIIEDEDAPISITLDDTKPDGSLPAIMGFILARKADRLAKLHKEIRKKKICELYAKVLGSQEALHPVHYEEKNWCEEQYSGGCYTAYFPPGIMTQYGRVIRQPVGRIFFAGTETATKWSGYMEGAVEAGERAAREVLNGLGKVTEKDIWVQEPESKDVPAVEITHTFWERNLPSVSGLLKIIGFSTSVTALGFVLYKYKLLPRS
Type of assay: functional.

The next assay concerns the target Prothrombin (Homo sapiens, UniProt P00734). Type of assay: functional.
Assay [7] addresses T1, Prostaglandin G/H synthase 1. Type of assay: functional. The source holds these as a separate data set.
The target of assay [8] is 5-hydroxytryptamine receptor 2B (Homo sapiens, UniProt P41595). It counts as functional, cell-based.
Assay [9] addresses Vascular endothelial growth factor receptor 2 (Homo sapiens, UniProt P35968). It counts as functional.
The target of assay [10] is Sodium-dependent noradrenaline transporter (Homo sapiens, UniProt P23975).
A further assay deals with Acetylcholinesterase (Homo sapiens, UniProt P22303). Type of assay: functional.
Assay [11] deals with Sodium-dependent dopamine transporter (Homo sapiens, UniProt Q01959).
Note: assay procedure not described here.

T1 sequence (P23219 whole entry): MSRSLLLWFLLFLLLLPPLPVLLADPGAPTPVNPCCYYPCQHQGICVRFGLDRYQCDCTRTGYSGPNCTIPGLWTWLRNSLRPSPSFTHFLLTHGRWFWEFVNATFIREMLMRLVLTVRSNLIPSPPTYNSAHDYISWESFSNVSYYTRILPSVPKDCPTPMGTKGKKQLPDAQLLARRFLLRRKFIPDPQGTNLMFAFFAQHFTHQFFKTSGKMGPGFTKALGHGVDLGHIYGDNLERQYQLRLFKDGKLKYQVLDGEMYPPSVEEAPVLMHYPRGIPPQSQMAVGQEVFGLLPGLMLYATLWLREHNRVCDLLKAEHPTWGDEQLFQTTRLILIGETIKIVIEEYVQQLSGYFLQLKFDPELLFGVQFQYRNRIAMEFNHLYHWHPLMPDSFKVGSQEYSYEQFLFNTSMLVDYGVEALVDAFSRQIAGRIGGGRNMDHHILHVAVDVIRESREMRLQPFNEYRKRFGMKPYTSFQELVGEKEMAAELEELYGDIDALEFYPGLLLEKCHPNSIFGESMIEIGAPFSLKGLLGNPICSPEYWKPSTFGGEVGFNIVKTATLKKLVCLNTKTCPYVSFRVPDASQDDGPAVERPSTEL
Sodium-dependent dopamine transporter, sequence (Q01959 whole entry): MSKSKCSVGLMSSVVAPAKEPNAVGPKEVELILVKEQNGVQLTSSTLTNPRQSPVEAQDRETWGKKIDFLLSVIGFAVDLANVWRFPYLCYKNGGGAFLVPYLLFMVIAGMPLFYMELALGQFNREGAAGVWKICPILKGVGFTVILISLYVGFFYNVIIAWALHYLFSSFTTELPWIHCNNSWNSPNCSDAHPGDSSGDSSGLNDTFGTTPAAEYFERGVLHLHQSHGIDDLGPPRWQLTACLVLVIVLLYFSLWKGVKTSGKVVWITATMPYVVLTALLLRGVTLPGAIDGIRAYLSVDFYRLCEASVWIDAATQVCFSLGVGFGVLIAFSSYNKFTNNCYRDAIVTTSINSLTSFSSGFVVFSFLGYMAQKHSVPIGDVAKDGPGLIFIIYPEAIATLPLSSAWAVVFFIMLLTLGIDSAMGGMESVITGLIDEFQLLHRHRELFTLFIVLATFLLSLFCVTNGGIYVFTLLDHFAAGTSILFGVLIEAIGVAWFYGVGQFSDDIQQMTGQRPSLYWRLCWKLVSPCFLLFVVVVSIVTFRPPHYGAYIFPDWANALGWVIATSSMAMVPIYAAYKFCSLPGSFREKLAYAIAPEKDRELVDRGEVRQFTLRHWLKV
5-hydroxytryptamine receptor 2B, sequence (P41595 whole entry): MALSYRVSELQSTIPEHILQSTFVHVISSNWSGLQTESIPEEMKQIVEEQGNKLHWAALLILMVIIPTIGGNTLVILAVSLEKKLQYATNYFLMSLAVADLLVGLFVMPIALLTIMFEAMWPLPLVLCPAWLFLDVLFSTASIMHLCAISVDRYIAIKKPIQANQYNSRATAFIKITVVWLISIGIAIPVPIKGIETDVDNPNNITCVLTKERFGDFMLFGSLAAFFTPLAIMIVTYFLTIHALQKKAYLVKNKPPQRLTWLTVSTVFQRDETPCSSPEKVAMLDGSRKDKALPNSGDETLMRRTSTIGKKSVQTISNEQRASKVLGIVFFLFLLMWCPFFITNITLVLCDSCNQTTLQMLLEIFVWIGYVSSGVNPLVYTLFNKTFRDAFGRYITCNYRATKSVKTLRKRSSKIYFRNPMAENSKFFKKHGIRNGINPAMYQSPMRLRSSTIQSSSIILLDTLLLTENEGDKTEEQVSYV
Sodium-dependent noradrenaline transporter, sequence (P23975 whole entry): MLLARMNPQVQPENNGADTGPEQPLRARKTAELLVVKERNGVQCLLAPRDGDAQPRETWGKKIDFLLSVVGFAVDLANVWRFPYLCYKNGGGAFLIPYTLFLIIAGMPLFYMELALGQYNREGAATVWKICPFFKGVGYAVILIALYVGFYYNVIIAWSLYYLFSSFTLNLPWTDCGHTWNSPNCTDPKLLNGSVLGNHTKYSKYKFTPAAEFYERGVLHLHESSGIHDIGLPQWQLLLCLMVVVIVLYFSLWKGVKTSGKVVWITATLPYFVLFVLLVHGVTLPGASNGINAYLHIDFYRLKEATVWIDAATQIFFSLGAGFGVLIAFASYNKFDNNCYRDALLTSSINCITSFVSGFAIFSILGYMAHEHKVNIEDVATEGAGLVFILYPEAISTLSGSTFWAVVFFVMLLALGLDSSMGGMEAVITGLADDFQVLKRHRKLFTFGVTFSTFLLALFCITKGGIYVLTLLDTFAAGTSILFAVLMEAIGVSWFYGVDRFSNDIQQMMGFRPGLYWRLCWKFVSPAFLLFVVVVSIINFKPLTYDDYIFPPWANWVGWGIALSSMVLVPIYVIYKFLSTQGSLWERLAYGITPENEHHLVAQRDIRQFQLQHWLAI
Vascular endothelial growth factor receptor 2, sequence (P35968 whole entry): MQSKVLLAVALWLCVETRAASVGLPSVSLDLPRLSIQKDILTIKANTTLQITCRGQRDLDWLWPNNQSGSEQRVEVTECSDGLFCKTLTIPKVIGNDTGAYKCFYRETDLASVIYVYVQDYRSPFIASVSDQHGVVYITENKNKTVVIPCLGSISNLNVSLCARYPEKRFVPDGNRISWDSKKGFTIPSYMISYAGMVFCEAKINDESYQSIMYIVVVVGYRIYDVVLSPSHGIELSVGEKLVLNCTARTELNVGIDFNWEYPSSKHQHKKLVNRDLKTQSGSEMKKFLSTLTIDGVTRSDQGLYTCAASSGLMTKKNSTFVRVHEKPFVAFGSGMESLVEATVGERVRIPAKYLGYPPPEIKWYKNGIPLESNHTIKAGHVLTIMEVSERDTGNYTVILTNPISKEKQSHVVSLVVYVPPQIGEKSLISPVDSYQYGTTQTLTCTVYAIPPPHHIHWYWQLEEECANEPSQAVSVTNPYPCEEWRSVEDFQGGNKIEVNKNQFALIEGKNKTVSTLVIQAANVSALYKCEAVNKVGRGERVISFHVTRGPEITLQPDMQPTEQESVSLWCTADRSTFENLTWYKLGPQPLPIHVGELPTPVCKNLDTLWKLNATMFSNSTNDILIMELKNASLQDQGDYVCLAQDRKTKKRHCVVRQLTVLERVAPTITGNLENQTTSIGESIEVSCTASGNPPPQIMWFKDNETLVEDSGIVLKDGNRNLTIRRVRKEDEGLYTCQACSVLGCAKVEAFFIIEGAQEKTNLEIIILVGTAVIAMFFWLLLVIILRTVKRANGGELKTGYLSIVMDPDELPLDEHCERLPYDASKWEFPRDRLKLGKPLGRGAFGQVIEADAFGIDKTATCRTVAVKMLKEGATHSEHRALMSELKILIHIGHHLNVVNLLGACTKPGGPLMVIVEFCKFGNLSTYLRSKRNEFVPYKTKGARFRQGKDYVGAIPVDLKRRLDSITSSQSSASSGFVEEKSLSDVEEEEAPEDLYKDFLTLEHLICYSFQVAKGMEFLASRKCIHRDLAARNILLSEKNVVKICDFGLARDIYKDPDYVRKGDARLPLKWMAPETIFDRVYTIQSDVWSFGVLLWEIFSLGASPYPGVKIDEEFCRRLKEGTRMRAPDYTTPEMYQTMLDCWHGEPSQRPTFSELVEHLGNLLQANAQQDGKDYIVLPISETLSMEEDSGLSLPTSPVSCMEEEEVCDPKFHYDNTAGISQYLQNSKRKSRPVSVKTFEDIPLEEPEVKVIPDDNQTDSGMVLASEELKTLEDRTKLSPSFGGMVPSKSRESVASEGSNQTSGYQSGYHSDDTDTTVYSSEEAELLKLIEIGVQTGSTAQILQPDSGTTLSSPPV
D(1A) dopamine receptor, sequence (P21728 whole entry): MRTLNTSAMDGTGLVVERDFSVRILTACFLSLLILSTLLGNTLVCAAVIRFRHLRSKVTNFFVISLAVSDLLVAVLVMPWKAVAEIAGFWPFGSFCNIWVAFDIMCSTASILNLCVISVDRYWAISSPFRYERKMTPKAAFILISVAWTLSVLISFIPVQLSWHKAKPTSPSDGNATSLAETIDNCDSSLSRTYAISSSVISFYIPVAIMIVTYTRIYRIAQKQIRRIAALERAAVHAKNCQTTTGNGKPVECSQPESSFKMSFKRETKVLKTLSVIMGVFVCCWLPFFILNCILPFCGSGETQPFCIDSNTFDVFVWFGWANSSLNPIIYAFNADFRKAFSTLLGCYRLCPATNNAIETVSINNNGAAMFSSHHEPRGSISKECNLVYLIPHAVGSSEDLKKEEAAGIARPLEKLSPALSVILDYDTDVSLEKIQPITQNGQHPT
Acetylcholinesterase, sequence (P22303 whole entry): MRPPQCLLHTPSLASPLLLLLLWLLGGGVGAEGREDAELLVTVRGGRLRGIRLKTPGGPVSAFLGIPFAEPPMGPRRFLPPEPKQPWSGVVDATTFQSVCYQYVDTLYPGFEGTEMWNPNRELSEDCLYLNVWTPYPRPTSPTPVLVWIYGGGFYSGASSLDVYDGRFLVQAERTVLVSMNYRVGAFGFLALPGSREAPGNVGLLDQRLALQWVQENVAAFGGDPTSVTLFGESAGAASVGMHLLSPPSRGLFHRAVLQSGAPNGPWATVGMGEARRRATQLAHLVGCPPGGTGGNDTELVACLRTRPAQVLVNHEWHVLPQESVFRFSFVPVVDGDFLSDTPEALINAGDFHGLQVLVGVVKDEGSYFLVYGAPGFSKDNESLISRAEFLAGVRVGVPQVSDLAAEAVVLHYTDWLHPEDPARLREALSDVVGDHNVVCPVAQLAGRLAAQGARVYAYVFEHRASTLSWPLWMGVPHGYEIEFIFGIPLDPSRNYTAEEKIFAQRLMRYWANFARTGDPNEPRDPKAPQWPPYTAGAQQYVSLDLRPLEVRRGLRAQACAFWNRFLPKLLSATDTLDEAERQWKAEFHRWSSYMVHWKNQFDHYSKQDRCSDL

In the case of `[H]/N=C(/N)NS(=O)(=O)c1ccc(N)cc1` [SULFAGUANIDINE], the AC50 (in assay [1]; on Progesterone receptor; in assay [2]; at Thromboxane A2 receptor [3]; at Thromboxane A2 receptor [4]; in assay [5]) was over 30 µM in each case. The concentration at half-maximal activity (AC50) (on D(1A) dopamine receptor; in assay [6]; at Prothrombin; in [7]; in assay [8]; in assay [9]) was over 30 µM each time. Also, the half-maximal activity concentration (AC50) (in assay [10]; at Acetylcholinesterase; in assay [11]) was over 30 µM each time.

With `CCOC1O[C@H]([C@@H](COCc2ccccc2)OCc2ccccc2)[C@H](OCc2ccccc2)[C@H]1O` (stereo not given in full) [TRIBENOSIDE], the AC50 in assay [1] is over 30 µM; at Progesterone receptor, over 30 µM; in assay [2] it was over 30 µM; on Thromboxane A2 receptor [3], over 30 µM; at Thromboxane A2 receptor [4], 11.9 µM; in [5], over 30 µM. Further, the AC50 (at D(1A) dopamine receptor; in [6]; on Prothrombin; in [7]; in assay [8]; in assay [9]) was over 30 µM throughout. The AC50 (in assay [10]; at Acetylcholinesterase; in assay [11]) was over 30 µM in each case.

Turning to `NS(=O)(=O)c1cc2c(cc1Cl)NC(C(Cl)Cl)NS2(=O)=O` (stereo not given) [TRICHLORMETHIAZIDE], the AC50 (in assay [1]; on Progesterone receptor; in assay [2]; at Thromboxane A2 receptor [3]; at Thromboxane A2 receptor [4]; in [5]) was over 30 µM in each case. Also, the AC50 (on D(1A) dopamine receptor; in assay [6]; on Prothrombin; in assay [7]; in [8]; in assay [9]) was over 30 µM throughout. The AC50 (in assay [10]; at Acetylcholinesterase; in [11]) was over 30 µM in each case.

As for `N[C@@H](Cc1ccc(O)cc1)C(=O)O` [TYROSINE], the AC50 (in [1]; on Progesterone receptor; in assay [2]; at Thromboxane A2 receptor [3]; on Thromboxane A2 receptor [4]; in assay [5]) was over 30 µM throughout. Further, the concentration at half-maximal activity (AC50) (at D(1A) dopamine receptor; in assay [6]; on Prothrombin; in assay [7]; in assay [8]; in [9]) was over 30 µM throughout. Moreover, the AC50 (in [10]; on Acetylcholinesterase; in assay [11]) was over 30 µM each time.

(Values after ChEMBL document CHEMBL5291721, “A preclinical secondary pharmacology resource illuminates target-adverse drug reaction associations of marketed drugs” (Nat Commun, 2023).)
